Source: ChEMBL document CHEMBL4627277, “Catenulisporidins A and B, 16-membered macrolides of the hygrolidin family produced by the chemically underexplored actinobacterium Catenulispora species” (Bioorg Med Chem Lett, 2020)
Calls of active or inactive are those of the source. The calls are words filed in the database; no cut-off is given here.

Assays:
Format in all cases: functional, cell-based
HeLa [1] = test: Inhibition of autophagic flux in human HeLa cells expressing mRFP-EGFP-LC3B assessed as blockage of autophagosome-lysosome fusion by measuring accumulation of yellow puncta at 3 uM measured after 24 hrs by fluorescence microscopic analysis
HeLa [2] = test: Modulation of autophagy in human HeLa cells expressing mRFP-EGFP-LC3B assessed as induction of EGFP-LC3B puncta formation at 0.3 uM measured after 24 hrs by fluorescence microscopic analysis
HeLa [3] = test: Antiproliferative activity against human HeLa cells assessed as reduction in cell growth
HeLa [4] = test: Modulation of autophagy in human HeLa cells expressing mRFP-EGFP-LC3B assessed as induction of EGFP-LC3B puncta formation at 3 uM measured after 24 hrs by fluorescence microscopic analysis
HeLa [5] = test: Modulation of autophagy in human HeLa cells assessed as autophagosome maturation by measuring conversion of LC3B-I to LC3B-II measured after 24 hrs by western blot analysis
HeLa [6] = test: Modulation of autophagy in human HeLa cells assessed as accumulation of p62 measured after 24 hrs by western blot analysis
HeLa [7] = test: Induction of autophagy in human HeLa cells expressing mRFP-EGFP-LC3B assessed as accumulation of red and green fluorescence signals at 200 nM measured after 24 hrs by fluorescence microscopic analysis

**Q.** How did the inhibition (HeLa [1]) turn out when CC[C@H]1O[C@@](O)([C@@H](C)[C@H](O)[C@H](C)[C@H]2OC(=O)/C(C)=C/C(C)=C/[C@@H](C)[C@@H](O)[C@@H](C)C/C(C)=C/C=C/[C@@H]2OC)C[C@@H](OC(=O)/C=C/C(=O)O)[C@@H]1C was run?
**A.** Active

**Q.** What about the Activity (HeLa [2]) of the same compound?
**A.** Active

**Q.** What about the IC50 (HeLa [3]) of the same compound?
**A.** 11.8 µM

**Q.** And the Activity (HeLa [4])?
**A.** Active

**Q.** And the Activity (HeLa [5])?
**A.** Dose-dependent effect

**Q.** What about the Activity (HeLa [6]) of the same compound?
**A.** Dose-dependent effect

**Q.** For CC[C@H]1O[C@@](O)([C@@H](C)[C@H](O)[C@H](C)[C@H]2OC(=O)/C(C)=C/C(C)=C/[C@@H](C)[C@@H](O)[C@@H](C)C[C@@](C)(O)[C@@H](O)/C=C/[C@@H]2OC)C[C@@H](OC(=O)/C=C/C(=O)O)[C@@H]1C, which inhibition (HeLa [1]) is on record?
**A.** Active

**Q.** What about the IC50 (HeLa [3]) of the same compound?
**A.** > 30 µM

**Q.** And the Activity (HeLa [4])?
**A.** Active

**Q.** What about the Activity (HeLa [5]) of the same compound?
**A.** Dose-dependent effect

**Q.** And the Activity (HeLa [6])?
**A.** Dose-dependent effect

**Q.** For CO/C1=C\C(C)=C\[C@@H](C)[C@@H](O)[C@@H](C)C/C(C)=C/C=C/[C@H](OC)[C@@H]([C@@H](C)[C@@H](O)[C@H](C)[C@@]2(O)C[C@@H](O)[C@H](C)[C@@H](C(C)C)O2)OC1=O [BAFILOMYCIN A1], which inhibition (HeLa [1]) is on record?
**A.** Active

**Q.** And the Activity (HeLa [2])?
**A.** Active

**Q.** And the IC50 (HeLa [3])?
**A.** 13 µM

**Q.** And the Activity (HeLa [4])?
**A.** Active

**Q.** What about the Activity (HeLa [6]) of the same compound?
**A.** Dose-dependent effect

**Q.** How did the Activity (HeLa [7]) turn out when CCC(=O)N1CCN(c2ccc(-n3c(=O)ccc4cnc5ccc(-c6cnc7ccccc7c6)cc5c43)cc2C(F)(F)F)CC1 was run?
**A.** Active

**Q.** CC[C@H]1O[C@@](O)([C@@H](C)[C@H](O)[C@H](C)[C@H]2OC(=O)/C(C)=C/C(C)=C/[C@@H](C)[C@H]3O[C@](C)(C[C@@H]3C)[C@@H](O)/C=C/[C@@H]2OC)C[C@@H](OC(=O)/C=C/C(=O)O)[C@@H]1C was tested. Which inhibition (HeLa [1]) did it give?
**A.** Active

**Q.** And the IC50 (HeLa [3])?
**A.** > 30 µM

**Q.** And the Activity (HeLa [4])?
**A.** Active

**Q.** What about the Activity (HeLa [5]) of the same compound?
**A.** Dose-dependent effect

**Q.** And the Activity (HeLa [6])?
**A.** Dose-dependent effect
